From ChEMBL document CHEMBL4390668, “Discovery and Structural Optimization of Acridones as Broad-Spectrum Antimalarials” (J Med Chem, 2019)
Calls of active or inactive are those of the source. The rule behind the calls is not given here.

Experiments:
Plasmodium falciparum [1] = test: Antimalarial activity against multidrug-resistant Plasmodium falciparum Dd2 infected in human erythrocytes by SYBR green 1-based fluorescence assay; type: functional, organism-based
Plasmodium falciparum [2] = test: Antimalarial activity against drug-resistant Plasmodium falciparum Dd2 harboring V259L mutant infected in human erythrocytes after 72 hrs by SYBR green 1-based fluorescence assay; type: functional, organism-based; conditions: Dd2, 72 h
Plasmodium falciparum [3] = test: Antimalarial activity against drug-resistant Plasmodium falciparum Dd2 harboring M133I/A138T double mutant infected in human erythrocytes after 72 hrs by SYBR green 1-based fluorescence assay; type: functional, organism-based; conditions: Dd2, 72 h
Plasmodium falciparum [4] = test: Antimalarial activity against drug-resistant Plasmodium falciparum Dd2 harboring M133I mutant infected in human erythrocytes after 72 hrs by SYBR green 1-based fluorescence assay; type: functional, organism-based; conditions: Dd2, 72 h
Plasmodium falciparum [5] = test: Inhibition of Plasmodium falciparum cytochrome b-c1
Plasmodium falciparum [6] = test: Antimalarial activity against Plasmodium falciparum 3D7 infected in human erythrocytes after 72 hrs by SYBR green 1-based fluorescence assay; type: functional, organism-based; conditions: 3D7, 72 h
Plasmodium falciparum [7] = test: Antimalarial activity against drug-resistant Plasmodium falciparum 3D7 harboring A82T/V259L double mutant infected in human erythrocytes after 72 hrs by SYBR green 1-based fluorescence assay; type: functional, organism-based; conditions: 3D7, 72 h
Plasmodium falciparum [8] = test: Antimalarial activity against chloroquine-sensitive Plasmodium falciparum D6 infected in human erythrocytes by SYBR green 1-based fluorescence assay; type: functional, organism-based
Plasmodium falciparum [9] = test: Antimalarial activity against multidrug-resistant Plasmodium falciparum 7G8 infected in human erythrocytes by SYBR green 1-based fluorescence assay; type: functional, organism-based
Plasmodium falciparum [10] = test: Antimalarial activity against atovaquone-resistant Plasmodium falciparum Tm90-C2B infected in human erythrocytes by SYBR green 1-based fluorescence assay; type: functional, organism-based
HepG2 = test: Cytotoxicity against human HepG2 cells measured after 24 to 36 hrs by resazurin dye based fluorescence assay; type: cell-based
[11] = Selectivity index, ratio of IC50 for human HepG2 cells to IC50 for chloroquine-sensitive Plasmodium falciparum D6 infected in human erythrocytes; type: toxicity, cell-based; conditions: read-out: Ratio IC50
Plasmodium berghei [12] = test: Antimalarial activity against luciferase-expressing Plasmodium berghei ANKA 676m1cl1 sporozoites infected in human HepG2A16 cells measured after 45 hrs by luciferase-luciferin based reporter assay; type: functional, organism-based; conditions: ANKA 676m1cl1, HepG2A16, 45 h
[13] = Half life in human liver microsomes at 1 uM by LC-MS analysis; type: ADME, Microsome
[14] = Half life in mouse liver microsomes at 1 uM by LC-MS analysis; type: ADME, Microsome
Plasmodium yoelii = test: Antimalarial activity against blood stage Plasmodium yoelii MR4 MRA-428 infected in CF1 mouse assessed as suppression of parasitemia administered once daily via oral gavage for 4 days starting from 24 hrs post-infection and measured post-last dose by Giemsa-staining based microscopic analysis; type: functional
hERG (KCNH2) = hERG (KCNH2) (Homo sapiens, UniProt Q12809); test: Inhibition of human ERG expressed in CHOK1 cells at 10 uM by automated patch clamp method relative to control; type: cell-based; conditions: CHO-K1 cells that express hERG
[15] = Mutagenicity in Salmonella typhimurium TA100 assessed as increase in revertant colonies up to 10 uM in presence of S9 fraction by Ames test; type: toxicity, subcellular; conditions: salmonella enterica subsp. enterica serovar typhimurium
[16] = Mutagenicity in Salmonella typhimurium TA100 assessed as increase in revertant colonies up to 10 uM in absence of S9 fraction by Ames test; type: toxicity; conditions: salmonella enterica subsp. enterica serovar typhimurium
[17] = Mutagenicity in Salmonella typhimurium TA98 assessed as increase in revertant colonies up to 10 uM in presence of S9 fraction by Ames test; type: toxicity, subcellular; conditions: salmonella enterica subsp. enterica serovar typhimurium
[18] = Mutagenicity in Salmonella typhimurium TA98 assessed as increase in revertant colonies up to 10 uM in absence of S9 fraction by Ames test; type: toxicity; conditions: salmonella enterica subsp. enterica serovar typhimurium
[19] = Mean residence time in ICR mouse plasma at 80 mg/kg, po administered as single dose; type: ADME, organism-based
[20] = Apparent volume of distribution in ICR mouse plasma at 80 mg/kg, po administered as single dose; type: ADME, organism-based; conditions: in vivo
[21] = Apparent elimination half life in ICR mouse plasma at 80 mg/kg, po administered as single dose; type: ADME, organism-based; conditions: ICR, plasma, read-out: betat1/2(app) (converted)
Plasmodium berghei [22] = test: (§1) Antimalarial activity against liver stage luciferase-expressing Plasmodium berghei ANKA 676m1cl1 sporozoites infected in C57BL/6 mouse assessed as suppression of parasitemia at 10 mg/kg, po pretreated for 1 day followed by parasite infection and subsequent compound dosing for 2 days measured at 24 to 48 hrs post-infection by luciferin-based real-time imaging analysis; type: functional
Plasmodium berghei [23] = test: as §1, with “blood” for “liver”, “up” for “at 24”, “30 days” for “48 hrs”, “YOYO1 staining based flow cytometry” for “luciferin-based real-time imaging analysis”; type: functional
[24] = Cmax in ICR mouse plasma at 80 mg/kg, po administered as single dose; type: ADME, organism-based; set-up: dose 80 mg/kg, route oral; conditions: ICR, plasma, read-out: Cmax
[25] = Tmax in ICR mouse plasma at 80 mg/kg, po administered as single dose; type: ADME, organism-based; conditions: ICR, plasma, read-out: Tmax
[26] = AUC (0 to last) in ICR mouse plasma at 80 mg/kg, po administered as single dose; type: ADME, organism-based; set-up: dose 80 mg/kg, route oral, time 0 - last
[27] = AUC (0 to infinity) in ICR mouse plasma at 80 mg/kg, po administered as single dose; type: ADME, organism-based; set-up: dose 80 mg/kg, route oral, time infinity; conditions: ICR, plasma
[28] = Apparent clearance in ICR mouse plasma at 80 mg/kg, po administered as single dose; type: ADME, organism-based; conditions: read-out: CL(app) (converted)
[29] = Cmax in ICR mouse liver at 80 mg/kg, po administered as single dose; type: ADME, organism-based; set-up: dose 80 mg/kg, route oral
[30] = Tmax in ICR mouse liver at 80 mg/kg, po administered as single dose; type: ADME, organism-based
[31] = AUC (0 to last) in ICR mouse liver at 80 mg/kg, po administered as single dose; type: ADME, organism-based; set-up: dose 80 mg/kg, route oral, time 0 - last
[32] = AUC (0 to infinity) in ICR mouse liver at 80 mg/kg, po administered as single dose; type: ADME, organism-based; set-up: dose 80 mg/kg, route oral, time infinity
[33] = Apparent elimination half life in ICR mouse liver at 80 mg/kg, po administered as single dose; type: ADME, organism-based; conditions: read-out: betat1/2(app) (converted)
[34] = Mean residence time in ICR mouse liver at 80 mg/kg, po administered as single dose; type: ADME, organism-based

Sequence of hERG (KCNH2) (Q12809 whole entry): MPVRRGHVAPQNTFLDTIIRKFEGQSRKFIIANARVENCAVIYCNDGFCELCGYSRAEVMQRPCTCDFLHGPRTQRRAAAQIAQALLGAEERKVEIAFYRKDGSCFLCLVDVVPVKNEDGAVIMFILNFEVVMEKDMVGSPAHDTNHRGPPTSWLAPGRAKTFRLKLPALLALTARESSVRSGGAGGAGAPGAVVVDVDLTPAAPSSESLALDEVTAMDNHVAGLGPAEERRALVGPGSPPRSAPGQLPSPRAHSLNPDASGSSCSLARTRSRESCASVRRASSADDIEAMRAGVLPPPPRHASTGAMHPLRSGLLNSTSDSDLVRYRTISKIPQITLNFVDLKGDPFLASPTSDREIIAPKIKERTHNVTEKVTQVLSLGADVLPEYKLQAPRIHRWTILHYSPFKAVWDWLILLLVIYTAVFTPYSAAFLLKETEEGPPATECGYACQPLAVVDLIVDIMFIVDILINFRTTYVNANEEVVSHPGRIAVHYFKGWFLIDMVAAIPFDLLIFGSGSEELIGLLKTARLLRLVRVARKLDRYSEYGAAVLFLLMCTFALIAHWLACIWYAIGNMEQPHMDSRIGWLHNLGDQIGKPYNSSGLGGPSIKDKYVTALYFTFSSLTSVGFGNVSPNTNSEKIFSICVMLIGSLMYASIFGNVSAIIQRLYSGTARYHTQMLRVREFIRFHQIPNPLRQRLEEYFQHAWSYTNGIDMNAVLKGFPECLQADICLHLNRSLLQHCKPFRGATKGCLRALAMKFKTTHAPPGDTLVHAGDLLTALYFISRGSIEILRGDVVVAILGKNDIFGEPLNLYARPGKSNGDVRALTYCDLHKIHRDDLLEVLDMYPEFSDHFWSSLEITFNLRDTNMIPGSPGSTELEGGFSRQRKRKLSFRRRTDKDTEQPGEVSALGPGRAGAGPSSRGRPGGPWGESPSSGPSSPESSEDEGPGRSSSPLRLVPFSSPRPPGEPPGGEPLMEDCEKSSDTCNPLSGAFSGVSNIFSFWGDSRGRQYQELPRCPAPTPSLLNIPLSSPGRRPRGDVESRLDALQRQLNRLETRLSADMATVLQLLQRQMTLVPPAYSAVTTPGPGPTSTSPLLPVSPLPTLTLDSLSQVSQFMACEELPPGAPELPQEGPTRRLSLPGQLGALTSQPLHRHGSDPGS

Compound	IC50 (Plasmodium falciparum [1])	IC50 (Plasmodium falciparum [2])	IC50 (Plasmodium falciparum [3])	IC50 (Plasmodium falciparum [4])	inhibition (Plasmodium falciparum [5])	IC50 (Plasmodium falciparum [6])	IC50 (Plasmodium falciparum [7])	IC50 (Plasmodium falciparum [8])	IC50 (Plasmodium falciparum [9])	IC50 (Plasmodium falciparum [10])	IC50 (HepG2)	selectivity ratio [11]	IC50 (Plasmodium berghei [12])	half-life at 1 µM [13]	half-life at 1 µM [14]	ED50 (Plasmodium yoelii)	ED90 (Plasmodium yoelii)	inhibition at 10 µM (hERG (KCNH2))	Activity [15]	Activity [16]	further results
C=C[C@H]1CN2CC[C@H]1C[C@H]2[C@H](O)c1ccnc2ccc(OC)cc12 [QUININE]	254 nM	215 nM	199 nM	197 nM	inactive																
Clc1ccc2c(N3CCN(CCCN4CCN(c5ccnc6cc(Cl)ccc56)CC4)CC3)ccnc2c1 [PIPERAQUINE]		7.1 nM	7.4 nM	10 nM	inactive	7.2 nM	5 nM														
CCCCN(CCCC)CC(O)c1cc(Cl)cc2c1-c1ccc(Cl)cc1/C2=C/c1ccc(Cl)cc1 (stereo not given) [LUMEFANTRINE]	5.7 nM	6.5 nM	3.6 nM	3.6 nM	inactive	3 nM	4.5 nM														
CCN(CC)CCOc1ccc2[nH]c3cc(Cl)ccc3c(=O)c2c1	132 to 366 nM	355 nM	340 nM		inactive	262 nM	284 nM	110 nM	81 nM	97 nM	30000 nM	272	793 nM	> 1 h	0.567 h						
CCN(CC)CCOc1ccc2c(=O)c3c(Cl)cc(Cl)cc3[nH]c2c1	22 to 31 nM	668 nM	1080 nM		inactive	16 nM	612 nM	8.2 nM	21 nM	465 nM	13400 nM	1630				3.09 mg/kg.day	50.2 mg/kg.day				
O=c1c2ccc(OCCCCl)cc2[nH]c2ccc(Cl)c(Cl)c12	17 to 22 nM	551 nM	324 nM		inactive	11.1 nM	605 nM	3.2 nM	3.1 nM	1040 nM	> 100000 nM	> 31200									
O=C1C(O)=C([C@H]2CC[C@H](c3ccc(Cl)cc3)CC2)C(=O)c2ccccc21 [ATOVAQUONE]		4.1 nM		6.9 nM	inactive	0.5 nM	1.9 nM														
CCN(CC)CCOc1ccc2c(=O)c3c(F)cc(F)cc3[nH]c2c1	16 to 20 nM	525 nM	60 nM		inactive	15 nM	1150 nM	7.8 nM	12 nM	1980 nM	77600 nM	9950				1.62 mg/kg.day	9.91 mg/kg.day				
CCCCCCOc1ccc2c(=O)c3c(F)cc(F)cc3[nH]c2c1	0.041 nM							0.026 nM	0.05 nM	5.4 nM	> 100000 nM	> 100000	72 nM			1.09 mg/kg.day	12.7 mg/kg.day	20%	Non-Toxic	Non-Toxic	Activity [17]: Non-Toxic; Activity [18]: Non-Toxic
O[C@@H](c1cc(C(F)(F)F)nc2c(C(F)(F)F)cccc12)[C@H]1CCCCN1 [(S,R)-MEFLOQUINE]	18 nM	23 nM	13 nM	14 nM	inactive																
CCN(CC)CCCOc1ccc2c(=O)c3c(Cl)cc(Cl)cc3[nH]c2c1	45 nM							19 nM	114 nM	228 nM	130000 nM	6840	138 nM	0.15 h	0.267 h	0.43 mg/kg.day	24.1 mg/kg.day	59%	Non-Toxic	Non-Toxic	Activity [17]: Non-Toxic; Activity [18]: Non-Toxic
CCCN(CCC)CCCOc1ccc2c(=O)c3c(F)cc(F)cc3[nH]c2c1	0.49 nM							0.35 nM	2.1 nM	440 nM	61500 nM	176000	3.4 nM	> 1 h	> 1 h	0.6 mg/kg.day	2.48 mg/kg.day	102%	Non-Toxic	Non-Toxic	MRT [19]: 11.8 h; Vz [20]: 175.302 L/kg; half-life [21]: 7.78 h; Activity (Plasmodium berghei [22]): 100%; Activity (Plasmodium berghei [23]): 100%; Activity [17]: Non-Toxic; Activity [18]: Non-Toxic; Cmax [24]: 526 ng/mL; Tmax [25]: 7.78 h; AUC(0-t) [26]: 3.43 µg·h/mL; AUC(0-inf) [27]: 5.08 µg·h/mL; CL/F [28]: 265 mL/min/kg; Cmax [29]: 19700 ng/mL; Tmax [30]: 4 h; AUC(0-t) [31]: 236 µg·h/mL; AUC(0-inf) [32]: 237 µg·h/mL; half-life [33]: 6.59 h; MRT [34]: 13.3 h
CCN(CC)CCCC(C)Nc1c2ccc(Cl)cc2nc2ccc(OC)cc12 (stereo not given) [QUINACRINE]	29 nM	18 nM	29 nM	23 nM	inactive																
O=c1c2ccc(OCCN(CCC(F)(F)F)CCC(F)(F)F)cc2[nH]c2cc(F)cc(F)c12	0.015 nM							0.002 nM	0.016 nM	2 nM	> 100000 nM	> 100000	0.09 nM	0.333 h	0.55 h	0.66 mg/kg.day	2.53 mg/kg.day	17%	Non-Toxic	Non-Toxic	Activity [17]: Non-Toxic; Activity [18]: Non-Toxic
CCCN(CCC)CCOc1ccc2c(=O)c3c(Cl)cc(Cl)cc3[nH]c2c1	0.003 nM								0.006 nM	153 nM			3.7 nM	> 1 h	> 1 h	0.21 mg/kg.day	3.54 mg/kg.day	38%	Non-Toxic	Non-Toxic	Activity [17]: Non-Toxic; Activity [18]: Non-Toxic
